Results taken from article PMC10602174, “Simultaneous Inhibition of PI3K and PAK in Preclinical Models of Neurofibromatosis Type 2-related Schwannomatosis” (Research Square, 2023).

Tests used:
human MD-SCs = test: Cell viability of MD-SC lines, monotherapy EC50 and combination synergy; format: cell-based
Protocol: (§1) Drugs used in this study are listed with their targets in Table S1. All drugs were obtained from SelleckChem (Houston, TX, USA), apart from (−)-B-Hydrastine (Santa Cruz Biotechnology, Dallas, TX, USA). Drugs were dissolved in DMSO (10 mM stock). MD-SCs were seeded in 384-well CellBind Corning plates at 1000 cells/well in phenol red-free media. After attachment, cells were treated with drugs at 10 concentrations in a 10×10 matrix. Mouse cells were treated for 48h and human cells for 72h prior to assessment of cell viability with CellTiter-Fluor Assay (Promega, Madison, WI, USA). All drugs were tested in at least two human MD-SC lines. Follow up testing was performed on a subset of combinations using the mouse MD-SC line. Matrix combination data was uploaded into the Combenefit software system to assess drug synergy using three methods (Loewe, Bliss, and HSA)([18]).

mouse MD-SCs (MS01) = test: Incucyte confluency and CC-3/7 assay; format: cell-based
MS01 cells (mouse MD-SC) = test: Cell viability (CellTiter-Fluor) and Combenefit synergy, 10x10 matrix; format: cell-based; conditions: MS01 48h, read-out: % Control cell viability; for viability at 0.03906 µM: single drug 39.06 nM; for viability at 0.07813 µM: single drug 78.13 nM; for viability at 0.15625 µM: single drug 156.25 nM; for viability at 0.3125 µM: single drug 312.5 nM; for viability at 0.625 µM: single drug 625 nM; for viability at 1.25 µM: single drug 1250 nM; for viability at 2.5 µM: single drug 2500 nM; for viability at 5 µM: single drug 5000 nM; for viability at 10 µM: single drug 10000 nM
Protocol: as §1

HS01 cells (human MD-SC) = test: as above; format: cell-based; conditions: HS01 72h, read-out: % Control cell viability; for viability at 0.03906 µM: single drug 39.06 nM; for viability at 0.07813 µM: single drug 78.13 nM; for viability at 0.15625 µM: single drug 156.25 nM; for viability at 0.3125 µM: single drug 312.5 nM; for viability at 0.625 µM: single drug 625 nM; for viability at 1.25 µM: single drug 1250 nM; for viability at 2.5 µM: single drug 2500 nM; for viability at 5 µM: single drug 5000 nM; for viability at 10 µM: single drug 10000 nM
Protocol: as §1

HS03 cells (human MD-SC) = test: as above; format: cell-based; conditions: HS03 72h, read-out: % Control cell viability; for viability at 0.03906 µM: single drug 39.06 nM; for viability at 0.07813 µM: single drug 78.13 nM; for viability at 0.15625 µM: single drug 156.25 nM; for viability at 0.3125 µM: single drug 312.5 nM; for viability at 0.625 µM: single drug 625 nM; for viability at 1.25 µM: single drug 1250 nM; for viability at 2.5 µM: single drug 2500 nM; for viability at 5 µM: single drug 5000 nM; for viability at 10 µM: single drug 10000 nM
Protocol: as §1

[1] = tested on: estrogen receptor positive breast cancer patients; conditions: addition of pictilisib to fulvestrant; cited from earlier work
luminal B breast cancer = conditions: adding pictilisib to anastrozole; cited from earlier work
[2] = tested on: patients with advanced solid tumors; conditions: pictilisib combined with the MEK inhibitor cobimetinib; cited from earlier work
[3] = Pharmacokinetic study, plasma and sciatic nerve after single oral gavage; format: in vivo, NSG mice; conditions: for Tmax: both sexes, NOD.Cg-Prkdcscid Il2rgtm1Wjl/SzJ (NSG), mouse, plasma, po, read-out: time of maximum plasma concentration; for penetration of blood-nerve barrier / detection in intact nerve: single oral gavage
Source text: The UCF animal facility is accredited by the Association for Assessment and Accreditation of Laboratory Animal Care. A total of 50 six- to eight-week-old mice were used for pharmacokinetic studies. […] Drugs were delivered via 0.5% methylcellulose, 0.2% Tween 80, 10% DMSO vehicle. Ten mice (three per drug and one control receiving vehicle alone) were used at each time point. Collected samples were frozen and sent to Cyprotex (Watertown, MA, USA) for LC-MS/MS quantitation of drug levels. Pharmacokinetic calculations were performed using the PKSolver software. The plasma half-life (t½) was calculated as the time required to reduce by half the plasma concentration after reaching pseudo-equilibrium and is not the time required to eliminate half the administered dose. An additional LC-MS/MS analyses of a subset of the treated mice (see below) was conducted. […] Three mice from each treatment group were selected randomly at the end of the in vivo study to assess the levels of drug in plasma, intact control nerve, and tumor. Samples were collected 4h after the final oral gavage, frozen, and sent to Cyprotex for analysis.

MS01 cells = test: Proteome Profiler Mouse Apoptosis Array; format: cell-based; conditions: MS01, pictilisib 2.5 μM 6h vs vehicle
Protocol: (§2) Human HS02 MD-SCs and mouse MTC-10 (MS01) MD-SCs cell lines were used. […] Cells were lysed and procedure was performed according to the Proteome Profiler Human or Mouse Apoptosis Array Kit (Cat No: ARY009 for Human, Cat No: ARY031 for Mouse, Biotechne, Minneapolis, MA, USA). Arrays were visualized using the Jess System (Biotechne), densitometry was measured and normalized to reference spots using ImageJ Software (NIH, Bethesda, MD, USA). Calculations were carried out using Prism 9 Software (GraphPad, Boston, MA, USA).

[4] = tested on: patients with advanced solid tumors; conditions: phase 1, advanced solid tumors; cited from earlier work
HS02 cells = test: Proteome Profiler Human Apoptosis Array; format: cell-based; conditions: HS02, pictilisib 2.5 μM 6h vs vehicle
Protocol: as §2

glioblastoma xenografts = tested on: glioblastoma xenografts; parameters: method as in PMID 19584227; conditions: cited from earlier work
[5] = tested on: ovarian cancer xenografts; parameters: method as in PMID 19584227; conditions: cited from earlier work
[6] = tested on: human MD-SCs (HS02, HS05); conditions: human MD-SC lines, Incucyte
Protocol: (§3) Human HS11, HS01, HS02, HS13 and HS05 and mouse MTC-10 cells (1,000 cells/well) were seeded in growth medium in three replicate wells/condition of a 384-well CellBIND Corning plate. […] Wells were imaged using the Incucyte® S5 Live-Cell Analysis system (Sartorius) for 24–72h. Phase and green fluorescent images were collected every 2h and analyzed using the integrated basic analyzer software.

HS01 cells = test: Incucyte live cell imaging, confluence and cleaved caspase 3/7; format: cell-based, human; conditions: HS01, 72h time course
Protocol: as §3

[7] = tested on: MS01-Luc allografts (mouse MD-SCs); test: Immunohistochemistry of allograft tumors; format: in vivo, NSG mice; conditions: tumors after 14 days of treatment, n = 4/group
[8] = Drug levels in plasma, control nerve and tumor at end of in vivo study; parameters: species or system NSG mice; conditions: 4h after final oral gavage, 14 days of daily treatment
Source text: Male and female NOD.Cg-Prkdcscid Il2rgtm1Wjl/SzJ (NSG) mice were bred in house and all care and use was approved by the University of Central Florida (UCF) Institutional Animal Care and Usage Committee (IACUC; #19 – 05, approved 04/08/2019). The UCF animal facility is accredited by the Association for Assessment and Accreditation of Laboratory Animal Care. A total of 50 six- to eight-week-old mice were used for pharmacokinetic studies. […] Drugs were delivered via 0.5% methylcellulose, 0.2% Tween 80, 10% DMSO vehicle. Ten mice (three per drug and one control receiving vehicle alone) were used at each time point. Collected samples were frozen and sent to Cyprotex (Watertown, MA, USA) for LC-MS/MS quantitation of drug levels. Pharmacokinetic calculations were performed using the PKSolver software. The plasma half-life (t½) was calculated as the time required to reduce by half the plasma concentration after reaching pseudo-equilibrium and is not the time required to eliminate half the administered dose. An additional LC-MS/MS analyses of a subset of the treated mice (see below) was conducted. This was done to determine whether PF-3758309 was accessible to the tumor neo-vasculature that can differ from that of the organ/tissue housing the tumor. […]

`COc1ncc(-c2ccc3nccc(-c4ccnnc4)c3c2)cc1NS(=O)(=O)c1ccc(F)cc1F` [omipalisib] gave an EC50 (human MD-SCs) of 2 nM.
For `CS(=O)(=O)N1CCN(Cc2cc3nc(-c4cccc5[nH]ncc45)nc(N4CCOCC4)c3s2)CC1` [Pictilisib], the CC-3/7 signal (mouse MD-SCs (MS01)) was “high CC-3/7 signal”, the confluency (mouse MD-SCs (MS01)) was “low confluency” and the viability at 0.03906 µM (MS01 cells (mouse MD-SC)) was 81%. For the same compound, the viability at 0.07813 µM (MS01 cells (mouse MD-SC)) was 78%, the viability at 0.15625 µM (MS01 cells (mouse MD-SC)) was 70% and the viability at 0.3125 µM (MS01 cells (mouse MD-SC)) was 65%. It also gave a viability at 0.625 µM (MS01 cells (mouse MD-SC)) of 65%, a viability at 1.25 µM (MS01 cells (mouse MD-SC)) of 54% and a viability at 2.5 µM (MS01 cells (mouse MD-SC)) of 53%. The viability at 5 µM (MS01 cells (mouse MD-SC)) was 50%, the viability at 10 µM (MS01 cells (mouse MD-SC)) was 55% and the viability at 0.03906 µM (HS01 cells (human MD-SC)) was 88%. For the same compound, the viability at 0.07813 µM (HS01 cells (human MD-SC)) was 85%, the viability at 0.15625 µM (HS01 cells (human MD-SC)) was 78% and the viability at 0.3125 µM (HS01 cells (human MD-SC)) was 72%. It also gave a viability at 0.625 µM (HS01 cells (human MD-SC)) of 72%, a viability at 1.25 µM (HS01 cells (human MD-SC)) of 66% and a viability at 2.5 µM (HS01 cells (human MD-SC)) of 66%. The viability at 5 µM (HS01 cells (human MD-SC)) was 64%, the viability at 10 µM (HS01 cells (human MD-SC)) was 65% and the viability at 0.03906 µM (HS03 cells (human MD-SC)) was 93%. The viability at 0.07813 µM (HS03 cells (human MD-SC)) was 97%, the viability at 0.15625 µM (HS03 cells (human MD-SC)) was 94% and the viability at 0.3125 µM (HS03 cells (human MD-SC)) was 89%. For the same compound, the viability at 0.625 µM (HS03 cells (human MD-SC)) was 86%, the viability at 1.25 µM (HS03 cells (human MD-SC)) was 79% and the viability at 2.5 µM (HS03 cells (human MD-SC)) was 68%. For the same compound, the viability at 5 µM (HS03 cells (human MD-SC)) was 72%, the viability at 10 µM (HS03 cells (human MD-SC)) was 77% and the dose-limiting toxicity [1] was “limited by toxicity”. The progression-free survival [1] was “did not significantly improve progression-free survival”, the “suppression of tumor cell proliferation” value (luminal B breast cancer) was “significantly increased suppression of tumor cell proliferation” and the tolerability and efficacy [2] was “limited tolerability and efficacy”. For the same compound, the Tmax [3] was 1 h, the “penetration of blood-nerve barrier / detection in intact nerve” value ([3]; single agent) was “penetrated the normal blood-nerve barrier” and the “time of maximum nerve concentration” value ([3]; single agent, single oral gavage 75 mg/kg) was 1 h. The CC-3 protein level (MS01 cells) was “significant increase”, the “anti-apoptotic proteins Bcl-2, Bcl-x and XIAP” value (MS01 cells) was “significant decrease” and the tolerability [4] was “well tolerated”. The “CC-3, Bcl-2 and Bcl-x protein levels” value (HS02 cells) was “no difference”, the XIAP protein level (HS02 cells) was “significant increase” and the growth inhibition (glioblastoma xenografts) was 98%. The growth inhibition [5] was 80% and the confluency [6] was “significantly reduced confluency”.
For `COc1ccc(-c2nc(N3CCOCC3)c3sc(CN(C)c4ncc(C(=O)NO)cn4)cc3n2)cn1` [CUDC907], the “cleaved caspase 3/7 (CC3/7) signal” value (HS01 cells) was “high CC-3/7 signal starting at 14h”.
With `Cc1nc(Nc2n[nH]c3c2CN(C(=O)N[C@H](CN(C)C)c2ccccc2)C3(C)C)c2sccc2n1` [PF-3758309] the “Ki67 staining (cell proliferation)” value [7] was “significantly decreased cell proliferation”, the YAP staining reduction [7] was “statistically significant” and the viability at 0.03906 µM (MS01 cells (mouse MD-SC)) was 61%. The viability at 0.07813 µM (MS01 cells (mouse MD-SC)) was 57%, the viability at 0.15625 µM (MS01 cells (mouse MD-SC)) was 50% and the viability at 0.3125 µM (MS01 cells (mouse MD-SC)) was 48%. It also gave a viability at 0.625 µM (MS01 cells (mouse MD-SC)) of 43%, a viability at 1.25 µM (MS01 cells (mouse MD-SC)) of 40% and a viability at 2.5 µM (MS01 cells (mouse MD-SC)) of 35%. For the same compound, the viability at 5 µM (MS01 cells (mouse MD-SC)) was 24%, the viability at 10 µM (MS01 cells (mouse MD-SC)) was 7% and the viability at 0.03906 µM (HS01 cells (human MD-SC)) was 71%. For the same compound, the viability at 0.07813 µM (HS01 cells (human MD-SC)) was 66%, the viability at 0.15625 µM (HS01 cells (human MD-SC)) was 67% and the viability at 0.3125 µM (HS01 cells (human MD-SC)) was 65%. The viability at 0.625 µM (HS01 cells (human MD-SC)) was 65%, the viability at 1.25 µM (HS01 cells (human MD-SC)) was 67% and the viability at 2.5 µM (HS01 cells (human MD-SC)) was 59%. It also gave a viability at 5 µM (HS01 cells (human MD-SC)) of 40%, a viability at 10 µM (HS01 cells (human MD-SC)) of 21% and a viability at 0.03906 µM (HS03 cells (human MD-SC)) of 72%. It also gave a viability at 0.07813 µM (HS03 cells (human MD-SC)) of 67%, a viability at 0.15625 µM (HS03 cells (human MD-SC)) of 63% and a viability at 0.3125 µM (HS03 cells (human MD-SC)) of 64%. For the same compound, the viability at 0.625 µM (HS03 cells (human MD-SC)) was 62%, the viability at 1.25 µM (HS03 cells (human MD-SC)) was 59% and the viability at 2.5 µM (HS03 cells (human MD-SC)) was 56%. The viability at 5 µM (HS03 cells (human MD-SC)) was 44%, the viability at 10 µM (HS03 cells (human MD-SC)) was 23% and the drug in tumor [8] was “bioavailable in the tumor”. For the same compound, the “half-life in plasma, together with pictilisib versus alone” value ([3]; PF-3758309 25 mg/kg oral) was “similar”, the “maximum concentration in plasma” value ([3]; PF-3758309 25 mg/kg oral, alone) was 110 ng/mL and the “maximum concentration in plasma” value ([3]; PF-3758309 25 mg/kg oral, co-administered with pictilisib 75 mg/kg) was 341 ng/mL. The Tmax [3] was 2 h, the “detection in normal nerve” value ([3]; co-administered with pictilisib) was “remained undetected in normal nerve” and the “penetration of blood-nerve barrier / detection in intact nerve” value ([3]; single agent) was “not detected in the intact nerve”.
